Measured values as given in patent US20110118277A1, “METHOD OF TREATING LIVER DISEASE” (priority 2003, published 2011).

Experiments:
[1] = test system: VEGFR3; assay: Ribonuclease protection assay of whole liver RNA: VEGFR3; type: in vivo, mouse; conditions: RPA, normalized to GAPDH, mean±SEM of 4 mice, HMCDE diet
Experimental: (§1) Total […] was isolated from frozen liver samples according to the method of Chomczynski and Sacchi as described in Gastroenterology 2002; 123: 1304-1310. KNA concentration was determined by optical density and quality was assessed by agarose gel electrophoresis and ethidium bromide staining. Commercial ribonuclease protection assay (RPA) kits with probes for murine cytokines (PharMingen, San Diego, Calif.) were used to evaluate factors that might be involved in the recruitment and expansion of HPC after liver injury. The factors studied were Stem Cell Factor (SCF), Hepatocyte Growth Factor (HGF), Interleukin-7 (IL-7), IL-11, Leukaemia Inhibitory Factor (LEF), Granulocyte-Macrophage Colony Stimulating Factor (GM-CSF), Granulocyte Colony, Stimulating Factor (G-CSF), Vascular Endothelial Growth Factor (VEGF), and its receptors, VEGFR1 and VEGFR3. Details of the RPA are described in J Pathol 2003; 199:191-200.
(§2) Total RNA was isolated from frozen liver samples as described in Mech Dev 120: 117-130, 2003. RNA concentration was determined by optical density and quality assessed by agarose gel electrophoresis and ethidium bromide staining. […]
(§3) In Table 1, Total liver RNA was obtained from 4 mice per treatment group and analyzed by RPA 20 μg RNA sample from each mouse was evaluated. Results are normalized to concurrently assessed expression of GAPDH in the same RNA samples. […]

[2] = test system: HGF; assay: Ribonuclease protection assay of whole liver RNA: HGF; type: in vivo, mouse; conditions: for effect on HMCDE-induced increase of hepatic HGF expression: versus HMCDE alone; for Gene Expression HGF: whole liver RNA, RPA, normalized to GAPDH, mean±SEM of 4 mice, HMCDE diet
Experimental: as §1
Total RNA was isolated from frozen liver samples as described in Mech Dev 120: 117-130, 2003. RNA concentration was determined by optical density and quality assessed by agarose gel electrophoresis and ethidium bromide staining. Ribonuclease protection assay (RPA) kits with probes for murine cytokines (PharMingen, San Diego, Calif.) were used to evaluate factors that might be involved in the recruitment and expansion of HPC after liver injury. The factors studied were Stem Cell Factor (SCF), Hepatocyte Growth Factor ([…]), Interleukin-6 (IL-6), IL7, IL-11, Leukaemia Inhibitory Factor (LIF), Granulocyte-Macrophage Colony Stimulating Factor (GM-CSF), Macrophage Colony Stimulating Factor (M-CSF), Granulocyte Colony Stimulating Factor (G-CSF), Vascular Endothelial Growth Factor (VEGF), and its receptors, VEGFR1 and YEGFR3.
In Table 1, Total liver RNA was obtained from 4 mice per treatment group and analyzed by RPA 20 μg RNA sample from each mouse was evaluated. Results are normalized to concurrently assessed expression of GAPDH in the same RNA samples. Data shown are the mean±SEM results of 4 mice per treatment group. Similar results were obtained in a second experiment.

[3] = test system: oval cells; assay: Immunohistochemical count of hepatic oval cells (HPC) in HMCDE-fed mice; type: in vivo, mouse; conditions: FIGS. 4A-4C, immunohistochemistry (and flow cytometry), P<0.001
Experimental: Immunohistochemical analysis of HPC was performed with a mouse monoclonal OV6-type antibody (from Dr Stuart Sell, Albany Medical College, Albany, N.Y.) reacting with cytokeratins 14 and 19; a rabbit polyclonal antibody against 56 and 64 kD human callus cytokeratins (Dako, Denmark) and a rat monoclonal antibody to cytokeratin 19 as described Am J Pathol 2002; 161:521-530.
Details of the staining procedures are as described Am J Pathol 2002; 161:521-530. Briefly, 4 um thick paraffin sections were deparaffinized and rehydrated, followed by heating in a microwave oven for 10 minutes at 750 Watt in citrate buffer, pH 6.0. Incubation with the primary antibodies was performed at room temperature for 30 minutes. Mouse monoclonal OV6 antibody and rat anti-cytokeratin 19 were detected using the DAKO Animal Research Kit, peroxidase (Dako, Denmark). The rabbit polyclonal antibody against 56 and 64 kD human callus cytokeratins was detected by anti-rabbit Envision (Dako, Denmark) as described in J Pathol 2003; 199:191-200. […]
To evaluate the effect of treatments on the HPC compartment, coded samples were examined by an experienced liver pathologist blinded to treatment groups. For each liver section, the number of HPC in 5, randomly selected, non-overlapping, high power (×40 objective) fields was counted. […] Interlobular bile ducts were not considered progenitor cells and, thus, were not counted as such.

[4] = test system: VEGFR1; assay: Ribonuclease protection assay of whole liver RNA: VEGFR1; type: in vivo, mouse; conditions: RPA, normalized to GAPDH, mean±SEM of 4 mice, HMCDE diet
Experimental: as §1, §2, §3

[5] = test system: bone marrow-derived hematopoietic progenitors; conditions: treatment of mice, shown hitherto; cited from earlier work
[6] = test system: VEGF; assay: Ribonuclease protection assay of whole liver RNA: VEGF; type: in vivo, mouse; conditions: RPA, normalized to GAPDH, mean±SEM of 4 mice, HMCDE diet
Experimental: as §1, §2, §3

[7] = test system: G-CSF; assay: Ribonuclease protection assay of whole liver RNA: G-CSF; type: in vivo, mouse; conditions: RPA, normalized to GAPDH, mean±SEM of 4 mice, HMCDE diet
Experimental: as §1, §2, §3

[8] = test system: LIN^−ve/Thy-1^+ve cells; assay: Flow cytometry of putative bone marrow-derived hepatic progenitors in liver of HMCDE-fed mice; type: in vivo, mouse; conditions: FIG. 4C, P<0.03 (PRZ), <0.05 (6-OHDA)
Source text: The hepatic non-parenchymal cell fraction, which contains the oval cell population and the NK-T cell populations, were isolated as described in Hepatology 1998; 27:433-455 and Gastroenterology 2002; 123:[…]. Briefly, livers were carefully removed and homogenized in Stomacher80 (Seawood, England). The homogenate was then passed through a 100-μm wire mesh and liver cells were collected by centrifugation at 450 g. Mononuclear cells were purified from this fraction by centrifugation at 900 g over 35% Percoll gradients (Amersham Pharmacia Biotech) and incubated with normal mouse serum (Sigma, St Louis, Mo.) and Fc-receptor block (anti-CD16/CD32) to prevent nonspecific binding, plus APC-conjugated anti-mouse Thy-1.2 (the C57BL-6 form of the Thy-1 antibody) and antibodies directed against hematopoietic lineage markers (LIN, a mix of anti-mouse CD4, CD8, CD3, CD45, CD19, Mac-1, Gr-1, Ter119). For NK-T cell labelling, the mononuclear cells were incubated with […] anti-mouse NK-1.1 and PE-conjugated anti-mouse CD3. […] After incubation, pellets were washed to remove unbound antibodies, fixed with 2% formaldehyde and evaluated by FACS (Becton Dickenson). […] Data was analyzed by Cell Quest software (Becton Dickenson) to determine changes in these cell populations in different treatment groups.

[9] = test system: healthy rats; conditions: healthy rats treated chronically; cited from earlier work

Row | SMILES | Gene Expression VEGFR3 [1] | effect on HMCDE-induced increase of hepatic HGF expression [2] | Gene Expression HGF [2] | oval cell / HPC number versus HMCDE diet alone [3] | Gene Expression VEGFR1 [4] | mobilization of hematopoietic progenitors [5] | Gene Expression VEGF [6] | Gene Expression G-CSF [7] | LIN^−ve/Thy-1^+ve cells in liver versus HMCDE diet alone [8] | liver weight, body weight, ratio and serum ALT [9]
1 | COc1cc2nc(N3CCN(C(=O)c4ccco4)CC3)nc(N)c2cc1OC [PRZ, prazosin] | 1.7 ± 0.4 | did not augment this response | 2.1 ± 0.30 | significantly augments diet-induced HPC expansion | 0.2 ± 0.2 | mobilize bone marrow-derived hematopoietic progenitors into the circulation | 1.4 ± 0.4 | 1.0 ± 0.3 | more LIN^−ve/Thy-1^+ve cells | 
2 | NCCc1cc(O)c(O)cc1O [6-OHDA, 6-hydroxydopamine] | 2.1 ± 1.0 | did not augment this response | 2.4 ± 0.75 | significantly augments diet-induced HPC expansion | 0.4 ± 0.1 | mobilize bone marrow-derived hematopoietic progenitors into the circulation | 2.3 ± 0.5 | 1.4 ± 0.3 | more LIN^−ve/Thy-1^+ve cells | liver weight, body weight and liver weight to body weight ratios increase significantly without any associated increase in serum ALT values
